According to BindingDB's records for doi:10.1016/j.bmcl.2012.06.057 (Sanofi-Aventis Deutschland, 2012):

Columns and labels:
[1] = Antagonist activity at LPA5 receptor in human isolated platelets assessed as inhibition of hexadecyl-LPA-induced platelet aggregation after 3 mins
[2] = Antagonist activity at LPA2 receptor in human isolated platelets assessed as inhibition of TRAP-induced platelet aggregation after 3 mins

IC50 [1] [µM]	IC50 [2] [µM]	Structure (SMILES)
> 30		Cc1csc2c(N[C@@H](C)CN3CCN(S(=O)(=O)c4ccc(Cl)c(Cl)c4)CC3)ncnc12
2.2	> 10	COc1cccc(-n2nc(C(=O)O)cc2-c2ccc(C3CCCCC3)c(Cl)c2)c1
> 30		Cc1noc(-c2ccc(CSCCC(=O)O)cc2)c1NC(=O)OC(C)c1ccccc1Cl (centres undefined) [3-(4-(4-((1-(2-chlorophenyl)ethoxy)carbonylamino)-3-methylisoxazol-5-yl)benzylthio)propanoic acid]
